This passage reports IC50 results from patent US20230416261A1, “ETHANEDIAMINE-HETEROCYCLE DERIVATIVES AS INHIBITORS OF PROTEIN ARGININE METHYLTRANSFERASES” (Board of Regents, The University of Texas System, priority 2021, published 2023).

The target in assay [1] is T1, PRMT1 (Homo sapiens, UniProt Q99873). The experiment in a line: PRMT1 Enzymatic Assay (LANCE TR-FRET, methylation of histone H4 at Arg3). Further details: purchased SignalChem P365-380G. The format is biochemical. Conditions: PRMT1 1.5 nM, SAM 1 μM, biotinylated histone H4 (1-21) 25 nM; read-out: PRMT-1 IC50. On the procedure: In order to measure PRMT1 enzymatic activity the LANCE TR-FRET assay from PerkinElmer was used to follow the methylation of histone H4 at Arg3 using S-adenosyl-L-methionine (SAM) as the methyl group donor.
This enzymatic assay was performed in a 384 well, white, low volume plate (PerkinElmer, Catalog 6008289) with assay buffer consisting of 50 mM Hepes (pH 8) (Teknova, Catalog #H1090), 1 mM TCEP (Sigma, Catalog #C4706), and 0.003% Tween-20 (Thermo, Catalog #85114). Stock solutions of the test compounds were prepared in 100% DMSO (Sigma, Catalog #D2650) and serially diluted 1:3 using 100% DMSO. Compounds were additionally diluted 1:40 in assay buffer, and 2 uL/well were transferred to the assay plate. 4 uL/well (final concentration 1.5 nM) of PRMT1 protein (SignalChem, Catalog #P365-380G) diluted in assay buffer was added to the assay plate followed by a 15 min preincubation at room temperature. 4 uL/well of SAM (Sigma, Catalog #A7007) and biotinylated histone H4 (1-21) (AnaSpec, Catalog #62555) (final concentrations 1 μM and 25 nM, respectively) diluted in assay buffer were then added to the assay plate followed by a 1 hour reaction time. Final concentrations of PRMT1, SAM, and histone H4 (1-21) refer to a […].
Detection of methylated histone H4 (H4R^3me) was achieved by combining LANCE Ultra Europium-anti-H4R^3me antibody (PerkinElmer, Catalog #TRF04-14), LANCE Ultra ULight-anti-streptavidin antibody (PerkinElmer, Catalog #TRF0102), and sinefungin (Sigma, Catalog #S8559) (final concentrations 2 nM, 50 nM, and 100 μM respectively) in 1× LANCE detection buffer (PerkinElmer, Catalog #CR97-100) and adding L/well of the detection solution to the assay plate. Detection reagents were allowed to react for 1 hour at room temperature. Final concentrations in the detection solution refer to a L volume. The europium fluorescence signal and the ULight TR-FRET signal were measured using a BioTek Synergy Neo plate reader: excitation at 330 nm, emission at 620 nm and 665 nm respectively, and the ratio of the two signals (665 nm/620 nm) was used for curve fitting. IC50 values were calculated using a four-parameter logistic curve fit using Genedata Screener software.
For orientation: In TR-FRET formats the signal depends on donor and acceptor labels being close together.

In another assay the test system is DOHH2 cells. The experiment in a line: DOHH2 Long Term Phenotypic Assay (7 days, Cell Titer-Glo viability). The format is cell-based. Conditions: Cell Titer-Glo 2.0. On the procedure:
DOHH2 cells were kindly provided by Michael Green (MDACC). The cells were routinely maintained in RPMI-1640 Medium (ATCC, Catalog #30-2001) supplemented with 10% fetal bovine serum (Sigma, Catalog #F2442), 100 units/mL penicillin and 100 μg/mL streptomycin (Gibco, Catalog #15140-122) in a humidified incubator (37° C., 5% CO2). Cells were seeded onto a white, CulturPlate-384 (Perkin Elmer, catalog #6007680) at a density of 250 cells per well in a volume of 50 μL. Stock solutions of the test compounds were prepared in 100% DMSO (Sigma, Catalog #D2650) and serially diluted 1:3 using 100% DMSO. Compounds were additionally diluted 1:33 in culture medium, and 10 μL/well was transferred to the tissue culture plate. Following the compound addition, the plate was incubated at 37° C. and 5% CO2 for 7 days. Cells were then mixed and a 30 μL volume was removed. Viability was assessed by a 30 μL addition of Cell Titer-Glo 2.0 (Promega, catalog #G9243). The plate was then shaken on an orbital shaker at 300 RPM for 10 minutes at room temperature, in the dark. Luminescence was measured using a PerkinElmer Envision™ plate reader. IC50 values were calculated using a four-parameter logistic curve fit using Genedata Screener software.
Background: ATP-based viability assays read luminescence as a measure of living cells.

Assay [2] deals with T1, PRMT1. The assay can be described thus: PRMT1 RKO Cellular Target Engagement Assay (In-Cell Western, asymmetric di-methyl arginine). Format: cell-based. Conditions: RKO cells, 48 hr compound incubation; read-out: RKO IC50 (PRMT-1 Target Engagement). On the procedure: RKO cells were routinely maintained in EMEM media (ATCC, Catalog #30-2003) supplemented with 10% fetal bovine serum (Sigma, Catalog #F2442) using a humidified incubator (37° C., 5% CO2, and ambient O2).
In preparation for the In-Cell Western assay, cells were harvested and resuspended in EMEM media supplemented with 10% fetal bovine serum. Cells were seeded onto a 384 well, black, clear bottom, Poly-D-Lysine coated tissue culture plate (Greiner, Catalog #781946) at a density of 1,000 cells/well in a volume of 40 μL. The culture plate was incubated for 24 hr at 37° C. with 5% CO2 and ambient O2. Stock solutions of the test compounds were prepared in 100% DMSO (Sigma, Catalog #D2650) and serially diluted 1:3 using 100% DMSO. Compounds were additionally diluted 1:40 in culture medium, and 10 μL/well was transferred to the tissue culture plate. Following the compound addition the microplate was incubated at 37° C. for 48 hr.
The media was removed, the plate was washed with 1× PBS (Fisher Bioreagents, Catalog #BP399-20), and cells were fixed for 10 min using 30 μL/well of 4% paraformaldehyde (Electron Microscopy Sciences, Catalog #15710). The paraformaldehyde was removed, the plate was again washed with 1× PBS, and cells were permeabilized for 15 min using 30 μL/well of 1× PBS containing 0.5% Triton-X 100 (Sigma, Catalog #1001748095). The permeabilization buffer was removed, the plate was washed with 1× PBST (Boston BioProducts, Catalog #IBB-171X), and 50 μL/well of blocking buffer (LI-COR, Catalog #927-40000) was added followed by a 1 hour incubation at room temperature. The blocking buffer was removed, and 20 μL/well of anti-asymmetric di-methyl arginine antibody (Cell Signaling, Catalog #13522S) diluted 1:1000 in LI-COR blocking buffer was added to the plate and incubated overnight, in the dark at 4° C.
The primary antibody was then removed, and the plate was washed three times with 1× PBST. 20 μL/well of CellTag (LI-COR, Catalog #926-41090) and IRDye 800CW goat anti-rabbit IgG antibody (LI-COR, Catalog #926-32211), each diluted 1:500 in LI-COR blocking buffer supplemented with 0.1% Tween-20 (Thermo Scientific, Catalog #85114), were added to the plate. The plate was then incubated in the dark, at room temperature for 1 hour followed by three washes with 1× PBST and one wash with H2O. The IRDye secondary antibody signal (800 channel) and the CellTag signal (700 channel) were measured using a Licor Odyssey Imager, and the 800 channel signal was then normalized to the 700 channel signal. IC50 values were calculated using a four-parameter logistic curve fit using Genedata Screener software.

T1 sequence (Q99873 whole entry): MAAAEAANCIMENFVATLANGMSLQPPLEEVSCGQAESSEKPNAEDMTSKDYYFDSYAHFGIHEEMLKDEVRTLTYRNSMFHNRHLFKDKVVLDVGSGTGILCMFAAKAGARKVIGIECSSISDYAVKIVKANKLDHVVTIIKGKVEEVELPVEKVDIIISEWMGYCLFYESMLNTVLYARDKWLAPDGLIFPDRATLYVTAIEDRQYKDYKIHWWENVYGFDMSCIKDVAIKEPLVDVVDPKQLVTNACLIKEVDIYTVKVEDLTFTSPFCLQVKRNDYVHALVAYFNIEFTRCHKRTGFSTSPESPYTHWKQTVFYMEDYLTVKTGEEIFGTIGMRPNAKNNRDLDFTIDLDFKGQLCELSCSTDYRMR

Take `CCC1(C(=O)N2CCn3nc(CN(C)CCNC)c(C4CCC(COC)(COC)CC4)c3C2)CCC1` [Example 67, (3-(4,4-bis(methoxymethyl)-cyclohexyl)-2-((methyl(2-(methylamino)ethyl)amino)-methyl)-6,7-dihydropyrazolo-[1,5-a]pyrazin-5(4H)-yl)(1-ethylcyclobutyl)methanone]: the IC50 (as a rule, the concentration at which inhibition is half-maximal) on PRMT1 [1] was determined as 0.075 µM; with DOHH2 cells (Homo sapiens, DOHH-2, 168 h), 0.156 µM; on PRMT1 [2], 0.273 µM.
For `CNCCN(C)Cc1nn2c(c1C1CCC(COC)(COC)CC1)CN(C(=O)C(C)(C)OC)CC2` [Example 69, 1-(3-(4,4-bis(methoxy-methyl)cyclohexyl)-2-((methyl(2-(methylamino)-ethyl)amino)methyl)-6,7-dihydropyrazolo[1,5-a]-pyrazin-5(4H)-yl)-2-methoxy-2-methylpropan-1-one], the half-inhibitory concentration (IC50) was determined as 0.32 µM at PRMT1 [1]; 0.474 µM in the assay on DOHH2 cells (Homo sapiens, DOHH-2, 168 h); 0.43 µM on PRMT1 [2].
Turning to `COCC1(COC)CCC(c2c(CN(C)CCN)nn3c2CN(C(=O)C(C)(C)C(F)(F)F)CC3)CC1` [Example 70, 1-(2-(((2-aminoethyl)-(methyl)amino)methyl)-3-(4,4-bis(methoxymethyl)-cyclohexyl)-6,7-dihydro-pyrazolo[1,5-a]pyrazin-5(4H)-yl)-3,3,3-trifluoro-2,2-dimethylpropan-1-one], the IC50 was determined as 0.044 µM on PRMT1 [1]; 0.195 µM with DOHH2 cells (Homo sapiens, DOHH-2, 168 h); 0.26 µM on PRMT1 [2].
Regarding `CNCCN(C)Cc1nn2c(c1C1CCC(COC)(COC)CC1)CN(C(=O)C(C)(C)O)CC2` [Example 71, 1-(3-(4,4-bis(methoxy-methyl)cyclohexyl)-2-((methyl(2-(methylamino)-ethyl)amino)methyl)-6,7-dihydropyrazolo[1,5-a]-pyrazin-5(4H)-yl)-2-hydroxy-2-methylpropan-1-one], the IC50 on PRMT1 [1] was determined as 0.266 µM; with DOHH2 cells (Homo sapiens, DOHH-2, 168 h), 0.962 µM; at PRMT1 [2], 3.48 µM.
For `CNCCN(C)Cc1nn2c(c1C1CCC(COC)(COC)CC1)CN(C(=O)C(C)COC)CC2` (stereo not drawn) [Example 72, 1-(3-(4,4-bis(methoxy-methyl)cyclohexyl)-2-((methyl(2-(methylamino)-ethyl)amino)methyl)-6,7-dihydropyrazolo[1,5-a]-pyrazin-5(4H)-yl)-3-methoxy-2-methylpropan-1-one] the same measures were 0.112 µM, 0.31 µM and 0.315 µM.
Taken in the same sequence, the figures for `CNCCN(C)Cc1nn2c(c1C1CCC(COC)(COC)CC1)CN(C(=O)C1CCOC1(C)C)CC2` (stereo not drawn) [Example 73, (3-(4,4-bis(methoxymethyl)-cyclohexyl)-2-((methyl(2-(methylamino)ethyl)amino)-methyl)-6,7-dihydropyrazolo-[1,5-a]pyrazin-5(4H)-yl)(2,2-dimethyltetrahydrofuran-3-yl)methanone] were 0.118 µM, 0.575 µM and 0.47 µM.
Taken in the same sequence, the figures for `CNCCN(C)Cc1nn2c(c1C1CCC(COC)(COC)CC1)CN(C(=O)C1CC(C)(O)C1)CC2` (stereo not drawn) [Example 75, (3-(4,4-bis(methoxymethyl)-cyclohexyl)-2-((methyl(2-(methylamino)ethyl)amino)-methyl)-6,7-dihydropyrazolo-[1,5-a]pyrazin-5(4H)-yl)(3-hydroxy-3-methylcyclobutyl)methanone] were 0.07 µM, 1.44 µM and 5.65 µM.
Take `CNCCN(C)Cc1nn2c(c1C1CCC(COC)(COC)CC1)CN(C(=O)C1(C)CCOC1)CC2` (stereo not drawn) [Example 76, (3-(4,4-bis(methoxymethyl)-cyclohexyl)-2-((methyl(2-(methylamino)ethyl)amino)-methyl)-6,7-dihydropyrazolo-[1,5-a]pyrazin-5(4H)-yl)(3-methyltetrahydrofuran-3-yl)-methanone]: the IC50 on PRMT1 [1] turned out to be 0.086 µM; in the assay on DOHH2 cells (Homo sapiens, DOHH-2, 168 h), 0.094 µM; at PRMT1 [2], 0.363 µM.
As for `CNCCN(C)Cc1nn2c(c1C1CCC(COC)(COC)CC1)CN(C(=O)C1CC(C)(C)C1)CC2` [Example 77, (3-(4,4-bis(methoxymethyl)-cyclohexyl)-2-((methyl(2-(methylamino)ethyl)amino)-methyl)-6,7-dihydropyrazolo-[1,5-a]pyrazin-5(4H)-yl)(3,3-dimethylcyclobutyl)-methanone], the IC50 at PRMT1 [1] was 0.084 µM; in the assay on DOHH2 cells it was 0.202 µM; on PRMT1 [2], 0.254 µM.
Turning to `CNCCN(C)Cc1nn2c(c1C1CCC(COC)(COC)CC1)CN(C(=O)C(C)(C)C1CCC1)CC2` [Example 78, 1-(3-(4,4-bis(methoxy-methyl)cyclohexyl)-2-((methyl(2-(methylamino)-ethyl)amino)methyl)-6,7-dihydropyrazolo[1,5-a]-pyrazin-5(4H)-yl)-2-cyclobutyl-2-methylpropan-1-one], the IC50 is 0.068 µM on PRMT1 [1]; 0.154 µM in the assay with DOHH2 cells (Homo sapiens, DOHH-2, 168 h); 0.192 µM at PRMT1 [2].
For `CNCCN(C)Cc1nn2c(c1C1CCC(COC)(COC)CC1)CN(C(=O)C1CCC(C)(C)O1)CC2` (stereo not drawn) [Example 79, (3-(4,4-bis(methoxymethyl)-cyclohexyl)-2-((methyl(2-(methylamino)ethyl)amino)-methyl)-6,7-dihydropyrazolo-[1,5-a]pyrazin-5(4H)-yl)(5,5-dimethyltetrahydrofuran-2-yl)methanone] the same measures were 0.217 µM, 0.303 µM and 0.688 µM.
